Test results reported in patent US20100056468A1, “Pyrimidine Derivatives As Anticancer Agents” (University Health Network, priority 2007, published 2010).

How the values were obtained:
CCD967 = test: In vitro cell proliferation assay (WST.1, Table 5); format: cell-based; conditions: Homo sapiens, CCD-967, 72 h; CCD967 normal skin line, day 3
Description: (§1) These cell lines were grown in Iscove's MDM supplemented with 5% fetal calf serum (FCS), 50 μM 2-mercaptoethanol, 100 μg/ml penicillin, and 100 μg/ml streptomycin. Cell lines growing in suspension were maintained at 0.5-1.5×10^6 cell/ml, while adherent cell lines were maintained at subconfluent densities.
(§2) Cell lines were seeded in triplicate at 10^4 cells/100 μl in 96-well plates. Peripheral blood mononuclear cells were seeded in triplicate at 10^5 cells/100 μl in 96-well plate. Different test compounds were added immediately at final concentrations ranging between 0 to 100 μM. All compounds were dissolved in sterile deionized water, so water was added to the control wells. On day 3, WST.1 assay (Roche) was used to measure the effect of different test compounds on cell growth. WST.1 assay is a calorimetric assay for the nonradioactive quantification of cell proliferation, cell viability, and cytotoxicity. The assay was performed according to manufacturer's instructions (Roche). It relies on the cleavage by cellular enzymes of WST.1 (water soluble tetrazolium salt: 4-[3-(4-iodophenyl)-2-(4-nitrophenyl)-2H-5-tetrazolio]-1,3-benzene disulfonate) to formazan. The amount of formazan dye formed correlates to the number of metabolically active cells in the culture and is readily read in an ELISA microplate reader using an absorbance wavelength of 440 nm. These OD values are plotted against concentrations of different compounds and IC50 is determined for each compound.

COLO205 = test: In vitro cell proliferation assay (WST.1, Table 5); format: cell-based; conditions: Homo sapiens, COLO 205, 72 h; COLO205, day 3
Description: as §1, §2

HS58T = test: In vitro cell proliferation assay (WST.1, Table 5); format: cell-based; conditions: Homo sapiens, 72 h, day 3
Description: as §1, §2

MCF7 = test: In vitro cell proliferation assay (WST.1, Table 5); format: cell-based; conditions: Homo sapiens, 72 h; MCF7, day 3
Description: as §1, §2

MDA468 = test: In vitro cell proliferation assay (WST.1, Table 5); format: cell-based; conditions: Homo sapiens, 72 h; MDA468, day 3
Description: as §1, §2

OCI-AML-1 [1] = test: In vitro cell proliferation assay (WST.1, Table 5); format: cell-based; conditions: Homo sapiens, 72 h; OCI-AML-1, day 3
Description: as §1, §2

OCI-AML-2 = test: In vitro cell proliferation assay (WST.1, Table 5); format: cell-based; conditions: Homo sapiens, OCI-AML2, 72 h; OCI-AML-2, day 3
Description: as §1, §2

OCI-Ly-7 [2] = test: In vitro cell proliferation assay (WST.1, Table 5); format: cell-based; conditions: Homo sapiens, OCI-Ly7, 72 h; OCI-Ly-7, day 3
Description: as §1, §2

OCI-My-2 [3] = test: In vitro cell proliferation assay (WST.1, Table 5); format: cell-based; conditions: Homo sapiens, 72 h; OCI-My-2, day 3
Description: as §1, §2

OCVR4 = test: In vitro cell proliferation assay (WST.1, Table 5); format: cell-based; conditions: Homo sapiens, 72 h; OCVR4, day 3
Description: as §1, §2

PC3 = test: In vitro cell proliferation assay (WST.1, Table 5); format: cell-based; conditions: Homo sapiens, PC-3, 72 h; PC3, day 3
Description: as §1, §2

SKW3 [4] = test: In vitro cell proliferation assay (WST.1, Table 5); format: cell-based; conditions: Homo sapiens, 72 h; SKW3, day 3
Description: as §1, §2

SNB19 = test: In vitro cell proliferation assay (WST.1, Table 5); format: cell-based; conditions: Homo sapiens, SNB-19, 72 h; SNB19, day 3
Description: as §1, §2

T47D = test: In vitro cell proliferation assay (WST.1, Table 5); format: cell-based; conditions: Homo sapiens, 72 h, day 3
Description: as §1, §2

LOX = test: In vitro cell proliferation assay (WST.1, Table 5); format: cell-based, human; conditions: day 3
Description: as §1, §2

[5] = tested on: leukemias (OCI-AML-1, OCI-AML-2, SKW3), lymphomas (OCI-Ly-7), multiple myeloma (OCI-My-2); test: In vitro cell proliferation assay (WST.1), summary over cell lines; format: cell-based; conditions: Homo sapiens; OCI-AML-1, OCI-AML-2, SKW3, OCI-Ly-7, OCI-My-2; read-out: IC50 values, range over cell lines
Description: as §1, §2

OCI-AML-1 [6] = test: Apoptosis assay (Annexin V/PI, FACS); format: cell-based, human; conditions: OCI-AML-1, 4 μM
Description: (§3) Cells were seeded in duplicate at 10^5 cells/ml in 24-well plates. 4 μM final concentration of compounds Io, In or Iag (Table 2) were added immediately after seeding. Water was added to the control wells. Every 24 hr, cells were harvested, washed in PBS, and stained with Annexin V/propidium iodide (PI) (1:200) using Annexin-V-FLUOS staining kit (Roche) according to the manufacturer's instructions. Annexin V is a Ca^2+− dependent phospholipids-binding protein with high affinity for phosphatidylserine (PS). It can be used as a probe to detect PS exposure on the outer leaflet of the cell membrane and is therefore widely used for detection of apoptotic cells. Unlike apoptotic cells (Annexin V^+/PI^−), necrotic cells are Annexin V^+PI^+. PI is a DNA stain. FACS was used to analyze the staining.
(§4) To determine whether reduced expansion of different cell lines in culture with Io, In, and Iag could be attributed to a decrease in cell survival, we stained treated and control cells with Annexin V and PI. Four cell lines (OCI-AML-1, OCI-Ly7, OCI-My2, and SKW3) were cultured in presence of 4 μM of […] for 4 days. Cells were harvested daily and Annexin V/PI staining was done by FACS. Our results clearly show an increase in the percentage of apoptotic (annexin V^+PI^−) cells cultured with Io, In, or Iag compared to the control cells (Table 6). Increased cell death was first observed on day 2 of culture.

OCI-Ly-7 [7] = test: Apoptosis assay (Annexin V/PI, FACS); format: cell-based, human; conditions: OCI-Ly-7, 4 μM
Description: as §3, §4

OCI-My-2 [8] = test: Apoptosis assay (Annexin V/PI, FACS); format: cell-based, human; conditions: OCI-My-2, 4 μM
Description: as §3, §4

SKW3 [9] = test: Apoptosis assay (Annexin V/PI, FACS); format: cell-based, human; conditions: SKW3, 4 μM
Description: as §3, §4

Mt ODCase = Mt ODCase (Methanothermobacter thermautotrophicus, UniProt O26232); test: biochemical; parameters: species or system M. thermoautotrophicum; conditions: reversible inhibition, 20 nM enzyme, 40 μM OMP
Hs ODCase = biological target: T1, Hs ODCase (Homo sapiens, UniProt P11172); test: Reversible (competitive) inhibition of ODCase, calorimetric assay; format: biochemical; conditions: 37° C., 60 nM enzyme
T1 construct: ODCase region of human UMP synthase
Description: The stock solution of enzyme (60 μM) was prepared in 50 mM Tris (pH 7.5), 20 mM DTT, and 40 mM NaCl and incubated overnight at 4° C. This stock sample was later used to prepare the enzyme assay samples. The enzyme was kept on ice during the experiment. The enzyme stock was diluted with 50 mM Tris buffer containing 1 mM DTT to prepare 60 nM enzyme assay samples. The final substrate concentration was 15 or 20 μM. Concentrated samples of inhibitors were prepared in 50 mM Tris (pH 7.5). The volumes and concentrations of the enzyme and substrate were the same as described above for the reaction without inhibitor. All three compounds were tested in a competitive inhibition assay where enzyme is mixed with the inhibitor and the reaction is initiated by the substrate addition. Assay samples were prepared in 50 mM Tris, 1 mM DTT. The final assay concentration of 5-F-6-azido-UMP was 0, 0.25, 0.50, 0.75, 1.0 μM. The assay samples were prepared with 0, 0.2, 0.4, 1.0, and 2.0 μM and 0, 50, 100, 250, 500 μM 5-fluoro-6-ethyl-UMP.
The initial data analyses were done in Origin 7.0 software. The raw data representing the heat change over time were converted to the reaction rate at each recorded time point. A Michaelis-Menten plot was constructed and the data were fitted to MM equation (Eq. 1) to determine the kinetic parameters KM and kcat. The molar enthalpy (ΔH) was also automatically calculated.
To calculate the Ki the data were exported to GraFit 5.0 program. The data points were fitted to the competitive inhibition equation (Eq. 2) and the Ki was estimated from the Dixon plot.

Row | SMILES | IC50 (CCD967) | IC50 (COLO205) | IC50 (HS58T) | IC50 (MCF7) | IC50 (MDA468) | IC50 (OCI-AML-1 [1]) | IC50 (OCI-AML-2) | IC50 (OCI-Ly-7 [2]) | IC50 (OCI-My-2 [3]) | IC50 (OCVR4) | IC50 (PC3) | IC50 (SKW3 [4]) | IC50 (SNB19) | IC50 (T47D) | IC50 (LOX; Homo sapiens, 72 h) | IC50 [5] | Fold increase in % of apoptotic (annexinV+PI−) cells: drug-treated vs.control (OCI-AML-1 [6]; day 1) | Fold increase in % of apoptotic (annexinV+PI−) cells: drug-treated vs.control (OCI-AML-1 [6]; day 2) | Ki (Mt ODCase) | Ki (Hs ODCase) | further results
1 | [N-]=[N+]=Nc1c(F)c(=O)[nH]c(=O)n1[C@@H]1O[C@H](CO)[C@@H](O)[C@H]1O [Io, 5-fluoro-6-azido uridine] | > 4 µM | 3.8 µM | > 4 µM | 1 µM | 1.8 µM | 0.6 µM | 0.7 µM | 0.7 µM | 0.6 µM | 1.5 µM | > 4 µM | 0.4 µM | > 4 µM | > 4 µM | 2.3 µM | 0.3 to 2.1 µM | 1.5 fold | 9.3 fold | 0.357 ± 0.028 µM | – | Fold increase in % of apoptotic (annexinV+PI−) cells: drug-treated vs.control (OCI-AML-1 [6]; day 3): 16 fold; Fold increase in % of apoptotic (annexinV+PI−) cells: drug-treated vs.control (OCI-Ly-7 [7]; day 1): 0.74 fold; Fold increase in % of apoptotic (annexinV+PI−) cells: drug-treated vs.control (OCI-Ly-7 [7]; day 2): 1.9 fold; Fold increase in % of apoptotic (annexinV+PI−) cells: drug-treated vs.control (OCI-Ly-7 [7]; day 3): 6.6 fold; Fold increase in % of apoptotic (annexinV+PI−) cells: drug-treated vs.control (OCI-My-2 [8]; day 1): 0.86 fold; Fold increase in % of apoptotic (annexinV+PI−) cells: drug-treated vs.control (OCI-My-2 [8]; day 2): 1.9 fold; Fold increase in % of apoptotic (annexinV+PI−) cells: drug-treated vs.control (OCI-My-2 [8]; day 3): 2.8 fold; Fold increase in % of apoptotic (annexinV+PI−) cells: drug-treated vs.control (SKW3 [9]; day 1): 1.2 fold; Fold increase in % of apoptotic (annexinV+PI−) cells: drug-treated vs.control (SKW3 [9]; day 2): 4.7 fold; Fold increase in % of apoptotic (annexinV+PI−) cells: drug-treated vs.control (SKW3 [9]; day 3): 4.4 fold
2 | Nc1c(F)c(=O)[nH]c(=O)n1[C@@H]1O[C@H](CO)[C@@H](O)[C@H]1O [In, 5-Fluoro-6-amino uridine] | > 4 µM | 3.3 µM | > 4 µM | 1.4 µM | 2.6 µM | 0.7 µM | 0.9 µM | 1.3 µM | 0.9 µM | 2 µM | > 4 µM | 0.6 µM | > 4 µM | > 4 µM | 3.4 µM | 0.3 to 2.1 µM | – | – | – | 16.6 ± 0.7 µM | –
3 | O=Cc1c(F)c(=O)[nH]c(=O)n1C1OC(CO)C(O)C1O (stereo not shown) [Iag] | – | – | – | 23.7 µM | 1.9 µM | 0.3 µM | 0.7 µM | 0.6 µM | 0.4 µM | – | > 100 µM | 0.3 µM | – | – | 0.3 µM | 0.3 to 2.1 µM | 1.4 fold | 5.3 fold | – | – | IC50 (LOX): 0.4 µM; Fold increase in % of apoptotic (annexinV+PI−) cells: drug-treated vs.control (OCI-AML-1 [6]; day 3): 14 fold; Fold increase in % of apoptotic (annexinV+PI−) cells: drug-treated vs.control (OCI-Ly-7 [7]; day 1): 0.82 fold; Fold increase in % of apoptotic (annexinV+PI−) cells: drug-treated vs.control (OCI-Ly-7 [7]; day 2): 2.1 fold; Fold increase in % of apoptotic (annexinV+PI−) cells: drug-treated vs.control (OCI-Ly-7 [7]; day 3): 6.2 fold; Fold increase in % of apoptotic (annexinV+PI−) cells: drug-treated vs.control (OCI-My-2 [8]; day 1): 0.77 fold; Fold increase in % of apoptotic (annexinV+PI−) cells: drug-treated vs.control (OCI-My-2 [8]; day 2): 1.7 fold; Fold increase in % of apoptotic (annexinV+PI−) cells: drug-treated vs.control (OCI-My-2 [8]; day 3): 2.7 fold; Fold increase in % of apoptotic (annexinV+PI−) cells: drug-treated vs.control (SKW3 [9]; day 1): 1.2 fold; Fold increase in % of apoptotic (annexinV+PI−) cells: drug-treated vs.control (SKW3 [9]; day 2): 4.6 fold; Fold increase in % of apoptotic (annexinV+PI−) cells: drug-treated vs.control (SKW3 [9]; day 3): 5.2 fold
4 | O=c1[nH]c(=O)n([C@@H]2O[C@H](COP(=O)(O)O)[C@@H](O)[C@H]2O)cc1F [Compound 5-F-UMP, 5-F-UMP, reference compound] | – | – | – | – | – | – | – | – | – | – | – | – | – | – | – | – | – | – | 646 ± 15 µM | 97.8 ± 5.9 µM | –
5 | CCc1c(F)c(=O)[nH]c(=O)n1C1OC(CO)C(O)C1O (stereo not shown) [Iah] | – | – | – | 31.4 µM | 5.3 µM | 2.1 µM | – | 1.9 µM | 1.4 µM | – | > 100 µM | 1.2 µM | – | – | 4.5 µM | 0.3 to 2.1 µM | – | – | 29 ± 0.3 µM | 0.353 ± 0.01 µM | –
